According to patent US20140336187A1, “METHODS FOR TREATING LEISHMANIASIS” (HOWARD UNIVERSITY, priority 2011, published 2014):
Values joined by “and” are separate entries in the source; they are usually repeats but may differ in a detail not shown here. Equal values may be shown once.

How the values were obtained:
L. donovani = experiment: In vivo visceral leishmaniasis BALB/c mouse model: liver and spleen parasite burden (LDUs); design: species or system BALB/c mice; conditions: for LDUs (Liver): subcutaneous, 4 days from day 7; for LDUs (Liver) / LDUs (Spleen): 14 days post infection, n=2; for Parasite Suppression (%)--Liver (reduction in parasite burden) / Parasite Suppression (%)--Spleen (reduction in parasite burden) / increase in parasite burden (spleen): compared to untreated controls
Description: Balb/c mice 10-11 weeks old were infected with L. donovani inoculated subcutaneously (SC) at the base of the tail (maximum 0.2 ml) with 1×10^6 freshly harvested promastigotes. These represented a VL model which has been described previously (Yardley and Croft, 1999). After infection, mice were marked for individual identification and randomly allocated into groups of two. Seven days after infection, a mouse was sacrificed, and parasitic burden assessed based on microscopic enumeration of amastigotes (Leishman donovan bodies) against host cell nuclei on liver and spleen impression smears (Stauber et al., 1958). Blood was collected through cardiac puncture for use in all serum based assays.
Dosing began on the seventh day post-infection for 4 continuous days. […] Dosing was administered subcutaneously at the base of the tail.
It includes the different groups of mice and the concentrations of compounds used for the treatment of infections. A Representation of infections and treatments of BALB/c Mice is in Table 2. All mice were infected with 10^6 log phase promastigotes in PBS. In each group with different concentrations, there were two mice (n=2). […] The positive controls that were infected but were not treated with any drug except PBS, and the negative controls that were not infected with the parasites, but injected with only PBS.
The efficacy of compounds was assessed by microscopically determining the reduction in amastigotes burden Leishman donovan bodies (LDBs) within the liver and spleen. Impression smears were taken 14 days post infection (7 days after the start of treatment). Mice liver and spleen imprints were made by touching a freshly cut surface of the mice liver and spleen many times with a Poly-L-Lysine coated slide. The slides were air dried, fixed in “Diff Quick” fixative for 30 seconds, drained, stained with “Quick Diff” solution II for 30 seconds, drained, and then finally counterstaining with “Diff Quick” solution I for 30 seconds and then drained. Slides were rinsed in tap water to remove excess stain and rapidly dehydrated in absolute alcohol. Slides were examined by light microscopy, using ×1000 oil immersion. LDBs were determined by dividing the number of LDBs/number of cells nuclei x weight of organ in milligrams. This gave the number of “Leishman donovan units” (LDUs).
The purpose of the test was to evaluate splenic and liver parasite burden after treatment with selected compounds. This was done by making imprints and calculating the number of Leishman Donovan Units (LDUs) in cells. LDUs are calculated by counting the number of parasites per cell nuclei (number of amastigotes in cells÷number of cells) multiplied by the weight of the organ in milligrams. […] Effectiveness of compounds in the treatment of VL is expressed as LDU numbers and as percent increases or percent decrease in LDUs. Percent increase in LDU means that the number of parasites increased compared to the untreated controls and percent decrease means that the number of parasites decreased compared to the untreated controls.

serum IgG = experiment: Seroprevalence of L. donovani-specific serum IgG (ELISA) in infected BALB/c mice; format: in vivo; conditions: serum 14 days post-infection
Description: To make L. donovani crude antigens, L. donovani promastigotes and amastigotes were counted using a hemocytometer, spun at 800×g for 10 min, and washed three times with 1× phosphate buffered saline (PBS). After the final wash, parasites were resuspended in 1×PBS at a concentration of 1×10^8 promastigotes (amastigotes)/ml and lysed by 5 freeze and thaw cycles or by sonication at maximum speed for 5 cycles of 10 seconds with cooling, and frozen at −80° C. until needed for assay (Burns et al., 1993; Zijlstra et al., 1998). Protein concentration was determined by the BIORAD assay.
5 μg/ml of antigen in 100 mM carbonate-bicarbonate buffer […], were added to the wells of a 96 well polyvinyl plate (100 μl/well) and incubated at room temperature for 1 hr or overnight at 4° C. Wells were emptied, blocking buffer was added (200 μl/well), and wells were incubated at room temperature for 1 hr. Wells were emptied and 50 or 100 μl/well of diluted samples added (5× mice serum), and incubated for 1.5-2 hrs. Plates were washed 4× and an anti-mouse-IgG was diluted 1:500, and added (100 μl/well); these plates were incubated for 30 min in the dark and secondary antibody tagged to HRP was added at a dilution of 1:500. TMB-HRP developer was added 100 μl/well for 30 min in the dark and plates were read at 630 nm on a spectrophotometer (Zijlstra et al., 1998).
The purpose of the test was to confirm positive infectivity through levels of serum IgG in infected BALB/c mice. A high serum IgG level is predictive of an infection with visceral leishmaniasis. The results are expressed as percent increase or percent decrease in IgG levels. Four compounds with three different concentrations each were used for the tests.
Serum levels of IgG in infected but untreated mice increased by 20.36% compared to that of uninfected mice. […] Specific-parasite IgG antibodies produced by BALB/c mice inoculated with 10^6 infective concentrations of Leishmania donovani. Mice (n=2 per group) were infected subcutaneously at the base of their tail with log phase promastigotes. […] Serum from mice was obtained fourteen days post-infection and tested individually by ELISA to determine the specific levels of L. donovani IgG. Bars indicate the mean±S.E. (Standard Error) from two mice.

[1] = tested on: NIH 3T3 BALB/c mouse fibroblast cell line; experiment: Cytotoxic assessment on NIH 3T3 BALB/c mouse fibroblasts (resazurin assay); conditions: for cytotoxicity compared with Amphotericin B: Balb/C 3T3 mouse fibroblast cell line, FIG. 2; for IC50: read-out: IC50 (μM) Fibroblasts, NIH 3T3 BALB/c mouse fibroblasts, 48 hrs, resazurin assay, means ± S.E.
Description: Fibroblasts cells (4×10^4 cells/nil and adding 100 μl per well) were incubated with different concentrations of the naphthoquinone compounds (FIGS. 1) (3, 7, 13, 29, 33, and 44 μM) for 48 hrs after which viability of live fibroblast cells was determined by the Resazurin Method using a microplate reader (Bio-Tek Instruments EL311).
NIH 3T3 mouse fibroblasts were maintained in Roswell Park Memorial Institute (RPMI) medium supplemented with 10% Fetal calf serum, 50 units/ml penicillin, 50 units/ml streptomycin B in a humidified incubator at 37° C. in the presence of 5% CO2 (Scala et al., 2010).
Assays were performed to assess the cytotoxicity of these compounds in 96-well microtiter plates, with each well containing 100 μl of RPMI medium supplemented with 10% bovine calf scrum with 50 U/ml Pen-Strep. The cells were plated at a concentration of 4×10^3 cells/well (4×10^4 cells/ml). Fibroblast cells were then incubated with compounds for 48 hrs and inspected under an inverted microscope to assure growth of the controls and sterile conditions. 10 μl of resazurin solution (12.5 mg resazurin dissolved in 100 nil distilled water) were added to each well and the plates were incubated for another 2 hrs. The plates were read with a microplate reader at 570 nm. Experiments were done at least 3 times in triplicates (Scala et al., 2010).
Cell viability was determined using Resazurin Assay. The IC50 values were calculated and expressed as means±S.E (standard error).

[2] = 20 mg/kg total dose, listed as Amphotericin B

Row | SMILES | LDUs (Liver) (L. donovani; 5 mg/kg total dose) | LDUs (Spleen) (L. donovani; 5 mg/kg total dose) | Parasite Suppression (%)--Liver (reduction in parasite burden) (L. donovani; 5 mg/kg) | Parasite Suppression (%)--Spleen (reduction in parasite burden) (L. donovani; 5 mg/kg) | LDUs (Liver) (L. donovani; 20 mg/kg total dose) | LDUs (Spleen) (L. donovani; 20 mg/kg total dose) | Parasite Suppression (%)--Liver (reduction in parasite burden) (L. donovani; 20 mg/kg) | Parasite Suppression (%)--Spleen (reduction in parasite burden) (L. donovani; 20 mg/kg) | LDUs (Liver) (L. donovani; 50 mg/kg total dose) | LDUs (Spleen) (L. donovani; 50 mg/kg total dose) | Parasite Suppression (%)--Liver (reduction in parasite burden) (L. donovani; 50 mg/kg) | Parasite Suppression (%)--Spleen (reduction in parasite burden) (L. donovani; 50 mg/kg) | IgG Increase (%) (serum IgG; 5 mg/kg) | IgG Increase (%) (serum IgG; 20 mg/kg) | IgG Increase (%) (serum IgG; 50 mg/kg) | cytotoxicity compared with Amphotericin B [1] | IC50 [1] | further results
1 | O=C1C(Cl)=C(N(C(=O)c2cccc(Cl)c2)C(=O)c2cccc(Cl)c2)C(=O)c2ccccc21 [IMDNQ4, 3-Chloro-N-(3-chlorobenzoyl)-N-(3-chloro-1,4-dioxo-1,4-dihydronaphthalen-2-yl)-benzamide] | 5823.8±3378 LDUs | 433.3±188 LDUs | 31.79% | 30.79% | 4266.0±6033 LDUs | 770.0±608 LDUs | 50.04% | 0% | 1003.8±1420 LDUs | 780.3±96 LDUs | 88.24% | 0% | 11.34% | 6.81% | 26.76% | far less cytotoxic than Amphotericin B | 168 µM | increase in parasite burden (spleen) (L. donovani; 20 mg/kg): 18.7%; increase in parasite burden (spleen) (L. donovani; 50 mg/kg): 19.8%
2 | CCCC(=O)N(C(=O)CCC)C1=C(Cl)C(=O)c2ccccc2C1=O [IMDNQ15] | 2267.5±191 LDUs | 315.0±129 LDUs | 73.44% | 49.68% | 2598.5±89 LDUs and 2598.5 ± 889 LDUs | 363.3±210 LDUs | 69.57% | 41.97% | 4618.0 ± 1785 LDUs | 213.0±115 LDUs | 45.92% | 65.97% | 21.79% | 14.12% | 30.70% |  | 2.94 µM | 
3 | C[C@@H]1[C@H](O)[C@@H](C)/C=C/C=C/C=C/C=C/C=C/C=C/C=C/[C@H](O[C@@H]2O[C@H](C)[C@@H](O)[C@H](N)[C@@H]2O)C[C@@H]2O[C@](O)(C[C@@H](O)C[C@@H](O)[C@H](O)CC[C@@H](O)C[C@@H](O)CC(=O)O[C@H]1C)C[C@H](O)[C@H]2C(=O)O [Am. B., Amphotericin B, reference compound] |  |  |  |  | 5681.0 ± 1868 LDUs | 402.3 ± 30 LDUs | 33.47% | 35.74% |  |  |  |  |  | 24.74% |  |  | 1.18 µM | LDUs (Liver) (L. donovani; [2]): 5823.8 LDUs; LDUs (Spleen) (L. donovani; [2]): 402.0±30 LDUs; Parasite Suppression (%)--Spleen (reduction in parasite burden) (L. donovani; 20 mg/kg, listed as Amphotericin B): 33.0%
4 | NC1=C(Br)C(=O)c2ccccc2C1=O [IMD8, 2-Amino-3-bromo-1,4-naphthoquinone] | 4752.5±293 LDUs | 585.3±222 LDUs | 56.66% and 55.66% | 6.51% | 3099.9±2197 LDUs | 297.8±9.5 LDUs | 44.34% | 52.44% | 1869.0±420 LDUs | 391.5±96 LDUs | 81.89% |  | 20.94% | 28.66% | 23.16% | far less cytotoxic than Amphotericin B |  | 
